# Assay results as given in patent publication US20260015358A1, “BICYCLIC DERIVATIVES, COMPOSITIONS AND USES THEREOF” (Danatlas Pharmaceuticals Co., Ltd., priority 2023, published 2026).
# Columns and labels:
# [1] = molecular target: T1, WRN [UniPro: Q14191 (WRN_HUMAN), N500-C946] (Homo sapiens (Human), UniProt Q14191); test: WRN ATPase assay (ADP-Glo); type: biochemical; conditions: WRN enzymatic activity assay
# [2] = molecular target: T1, WRN [UniPro: Q14191 (WRN_HUMAN), N500-C946]; test: WRN unwinding assay (FORKF DNA, fluorescence); type: biochemical; conditions: Table 14
# T1 sequence (Q14191 500-946): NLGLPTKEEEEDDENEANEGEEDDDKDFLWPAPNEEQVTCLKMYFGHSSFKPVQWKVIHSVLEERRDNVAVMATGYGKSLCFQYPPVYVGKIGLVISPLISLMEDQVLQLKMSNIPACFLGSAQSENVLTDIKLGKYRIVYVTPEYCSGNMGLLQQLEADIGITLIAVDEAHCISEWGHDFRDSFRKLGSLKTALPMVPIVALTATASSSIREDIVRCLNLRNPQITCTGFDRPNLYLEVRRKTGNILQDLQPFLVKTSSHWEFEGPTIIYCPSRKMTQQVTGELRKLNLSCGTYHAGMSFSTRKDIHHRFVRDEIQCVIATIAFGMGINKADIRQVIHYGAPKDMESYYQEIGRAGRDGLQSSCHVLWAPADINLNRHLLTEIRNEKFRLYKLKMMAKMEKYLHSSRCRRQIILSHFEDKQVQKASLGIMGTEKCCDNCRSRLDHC
smiles,measurement,setting,value
"CCc1c(N2CCN(C(=O)CNC(=O)CC3CC3)CC2)c(=O)n2nc(C3=CCOCC3)nc2n1CC(=O)Nc1ccc(C(F)(F)F)cc1Cl [Example 275, N-(2-Chloro-4-(trifluoromethyl)phenyl)-2-(6-(4-((2-cyclopropylacetyl)glycyl)piperazin-1-yl)-2-(3,6-dihydro-2H-pyran-4-yl)-5-ethyl-7-oxo-[1,2,4]triazolo[1,5-a]pyrimidin-4(7H)-yl)acetamide]",IC50,[1],< 100 nM
same,IC50,[2],< 100 nM
"CCc1c(N2CCN(C(=O)c3cccc(=O)[nH]3)CC2)c(=O)n2nc(C3=CCOCC3)nc2n1CC(=O)Nc1ccc(C(F)(F)F)cc1Cl [Example 78, N-(2-Chloro-4-(trifluoromethyl)phenyl)-2-(2-(3,6-dihydro-2H-pyran-4-yl)-5-ethyl-7-oxo-6-(4-(6-oxo-1,6-dihydropyridine-2-carbonyl)piperazin-1-yl)-[1,2,4]triazolo[1,5-a]pyrimidin-4(7H)-yl)acetamide]",IC50,[1],< 100 nM
same,IC50,[2],< 100 nM
"CCc1c(N2CCN(C(=O)CNC(=O)c3nc(C)ncc3O)CC2)c(=O)n2nc(C3=CCOCC3)nc2n1CC(=O)Nc1ccc(C(F)(F)F)cc1Cl [Example 368, N-(2-(4-(4-(2-((2-Chloro-4-(trifluoromethyl)phenyl)amino)-2-oxoethyl)-2-(3,6-dihydro-2H-pyran-4-yl)-5-ethyl-7-oxo-4,7-dihydro-[1,2,4]triazolo[1,5-a]pyrimidin-6-yl)piperazin-1-yl)-2-oxoethyl)-5-hydroxy-2-methylpyrimidine-4-carboxamide]",IC50,[1],< 100 nM
same,IC50,[2],< 100 nM
"CCc1c(N2CCN(C(=O)C(=O)Nc3cc(C)[nH]n3)CC2)c(=O)n2nc(C3=CCOCC3)nc2n1CC(=O)Nc1ccc(C(F)(F)F)cc1Cl [Example 331, 2-(4-(4-(2-((2-Chloro-4-(trifluoromethyl)phenyl)amino)-2-oxoethyl)-2-(3,6-dihydro-2H-pyran-4-yl)-5-ethyl-7-oxo-4,7-dihydro-[1,2,4]triazolo[1,5-a]pyrimidin-6-yl)piperazin-1-yl)-N-(5-methyl-1H-pyrazol-3-yl)-2-oxoacetamide]",IC50,[1],< 100 nM
same,IC50,[2],< 100 nM
"CCc1c(N2CCN(C(=O)c3c[nH]c(=O)n(C)c3=O)CC2)c(=O)n2nc(C3=CCOCC3)nc2n1CC(=O)Nc1ccc(C(F)(F)F)cc1Cl [Example 43, N-(2-Chloro-4-(trifluoromethyl)phenyl)-2-(2-(3,6-dihydro-2H-pyran-4-yl)-5-ethyl-6-(4-(3-methyl-2,4-dioxo-1,2,3,4-tetrahydropyrimidine-5-carbonyl)piperazin-1-yl)-7-oxo-[1,2,4]triazolo[1,5-a]pyrimidin-4(7H)-yl)acetamide]",IC50,[1],100 to 1000 nM
same,IC50,[2],< 100 nM
"CCc1c(N2CCN(C(=O)CNC(=O)Cc3cscn3)CC2)c(=O)n2nc(C3=CCOCC3)nc2n1CC(=O)Nc1ccc(C(F)(F)F)cc1Cl [Example 276, N-(2-Chloro-4-(trifluoromethyl)phenyl)-2-(2-(3,6-dihydro-2H-pyran-4-yl)-5-ethyl-7-oxo-6-(4-((2-(thiazol-4-yl)acetyl)glycyl)piperazin-1-yl)-[1,2,4]triazolo[1,5-a]pyrimidin-4(7H)-yl)acetamide]",IC50,[1],< 100 nM
same,IC50,[2],< 100 nM
"CCC(=O)N(C(=O)Cn1c(CC)c(N2CCN(S(N)(=O)=O)CC2)c(=O)n2nc(C3=CCOCC3)nc12)c1ccc(C(F)(F)F)cc1Cl [Example 35, N-(2-Chloro-4-(trifluoromethyl)phenyl)-N-(2-(2-(3,6-dihydro-2H-pyran-4-yl)-5-ethyl-7-oxo-6-(4-sulfamoylpiperazin-1-yl)-[1,2,4]triazolo[1,5-a]pyrimidin-4(7H)-yl)acetyl)propionamide]",IC50,[1],100 to 1000 nM
same,IC50,[2],100 to 1000 nM
"CCc1c(N2CCN(C(=O)CNC(=O)c3ccc(F)c(NC)c3)CC2)c(=O)n2nc(N3CCOCC3)nc2n1CC(=O)Nc1ccc(C(F)(F)F)cc1Cl [Example 251, N-(2-(4-(4-(2-((2-Chloro-4-(trifluoromethyl)phenyl)amino)-2-oxoethyl)-5-ethyl-2-morpholino-7-oxo-4,7-dihydro-[1,2,4]triazolo[1,5-a]pyrimidin-6-yl)piperazin-1-yl)-2-oxoethyl)-4-fluoro-3-(methylamino)benzamide]",IC50,[1],< 100 nM
same,IC50,[2],< 100 nM
"CCc1c(N2CCN(C(=O)c3nccc4[nH]ccc34)CC2)c(=O)n2nc(C3=CCOCC3)nc2n1CC(=O)Nc1ccc(Cl)cc1C(F)(F)F [Example 67, 2-(6-(4-(1H-Pyrrolo[3,2-c]pyridine-4-carbonyl)piperazin-1-yl)-2-(3,6-dihydro-2H-pyran-4-yl)-5-ethyl-7-oxo-[1,2,4]triazolo[1,5-a]pyrimidin-4(7H)-yl)-N-(4-chloro-2-(trifluoromethyl)phenyl)acetamide]",IC50,[1],< 100 nM
same,IC50,[2],< 100 nM
"CCc1c(N2CCN(C(=O)CNC(=O)c3ccno3)CC2)c(=O)n2nc(C3=CCOCC3)nc2n1CC(=O)Nc1ccc(C(F)(F)F)cc1Cl [Example 370, N-(2-(4-(4-(2-((2-Chloro-4-(trifluoromethyl)phenyl)amino)-2-oxoethyl)-2-(3,6-dihydro-2H-pyran-4-yl)-5-ethyl-7-oxo-4,7-dihydro-[1,2,4]triazolo[1,5-a]pyrimidin-6-yl)piperazin-1-yl)-2-oxoethyl) isoxazole-5-carboxamide]",IC50,[1],< 100 nM
same,IC50,[2],< 100 nM
"CCc1c(N2CCN(C(=O)CNS(C)(=O)=O)CC2)c(=O)n2nc(C3=CCOCC3)nc2n1CC(=O)Nc1ccc(C(F)(F)F)cc1Cl [Example 170, N-(2-Chloro-4-(trifluoromethyl)phenyl)-2-(2-(3,6-dihydro-2H-pyran-4-yl)-5-ethyl-6-(4-((methylsulfonyl)glycyl)piperazin-1-yl)-7-oxo-[1,2,4]triazolo[1,5-a]pyrimidin-4(7H)-yl)acetamide]",IC50,[1],100 to 1000 nM
same,IC50,[2],100 to 1000 nM
"CCOC(=O)c1cnc2oc(C(=O)N3CCN(c4c(CC)n(CC(=O)Nc5ccc(C(F)(F)F)cc5Cl)c5nc(C6=CCOCC6)nn5c4=O)CC3)cc2c1O [Example 53, Ethyl 2-(4-(4-(2-((2-chloro-4-(trifluoromethyl)phenyl)amino)-2-oxoethyl)-2-(3,6-dihydro-2H-pyran-4-yl)-5-ethyl-7-oxo-4,7-dihydro-[1,2,4]triazolo[1,5-a]pyrimidin-6-yl)piperazine-1-carbonyl)-4-hydroxyfuro[2,3-b]pyridine-5-carboxylate]",IC50,[1],< 100 nM
same,IC50,[2],100 to 1000 nM
"CCc1c(N2CCN(C(=O)C(=O)NOC)CC2)c(=O)n2nc(C3=CCOCC3)nc2n1CC(=O)Nc1ccc(C(F)(F)F)cc1Cl [Example 330, 2-(4-(4-(2-((2-Chloro-4-(trifluoromethyl)phenyl)amino)-2-oxoethyl)-2-(3,6-dihydro-2H-pyran-4-yl)-5-ethyl-7-oxo-4,7-dihydro-[1,2,4]triazolo[1,5-a]pyrimidin-6-yl)piperazin-1-yl)-N-methoxy-2-oxoacetamide]",IC50,[1],< 100 nM
same,IC50,[2],< 100 nM
"CCc1c(N2CCN(C(=O)c3ncnc4c(Cl)c[nH]c34)CC2)c(=O)n2nc(C3=CCOCC3)nc2n1CC(=O)Nc1ccc(C(F)(F)F)cc1Cl [Example 44, N-(2-Chloro-4-(trifluoromethyl)phenyl)-2-(6-(4-(7-chloro-5H-pyrrolo[3,2-d]pyrimidine-4-carbonyl)piperazin-1-yl)-2-(3,6-dihydro-2H-pyran-4-yl)-5-ethyl-7-oxo-[1,2,4]triazolo[1,5-a]pyrimidin-4(7H)-yl)acetamide]",IC50,[1],100 to 1000 nM
same,IC50,[2],100 to 1000 nM
"CCc1c(N2CCN(C(=O)c3[nH]cnc3C(F)(F)F)CC2)c(=O)n2nc(C3=CCOCC3)nc2n1CC(=O)Nc1ccc(C(F)(F)F)cc1Cl [Example 31, N-(2-Chloro-4-(trifluoromethyl)phenyl)-2-(2-(3,6-dihydro-2H-pyran-4-yl)-5-ethyl-7-oxo-6-(4-(4-(trifluoromethyl)-1H-imidazole-5-carbonyl)piperazin-1-yl)-[1,2,4]triazolo[1,5-a]pyrimidin-4(7H)-yl)acetamide]",IC50,[1],100 to 1000 nM
same,IC50,[2],< 100 nM
"CCc1c(N2CCN(C(=O)CNC(=O)c3ncc(C)s3)CC2)c(=O)n2nc(C3=CCOCC3)nc2n1CC(=O)Nc1ccc(C(F)(F)F)cc1Cl [Example 128, N-(2-(4-(4-(2-((2-Chloro-4-(trifluoromethyl)phenyl)amino)-2-oxoethyl)-2-(3,6-dihydro-2H-pyran-4-yl)-5-ethyl-7-oxo-4,7-dihydro-[1,2,4]triazolo[1,5-a]pyrimidin-6-yl)piperazin-1-yl)-2-oxoethyl)-5-methylthiazole-2-carboxamide]",IC50,[1],100 to 1000 nM
same,IC50,[2],< 100 nM
"CCc1c(N2CCN(C(=O)c3cnc4[nH]cnc4c3O)CC2)c(=O)n2nc(C3=CCOCC3)nc2n1CC(=O)Nc1ccc(C(F)(F)F)cc1Cl [Example 57, N-(2-Chloro-4-(trifluoromethyl)phenyl)-2-(2-(3,6-dihydro-2H-pyran-4-yl)-5-ethyl-6-(4-(7-hydroxy-3H-imidazo[4,5-b]pyridine-6-carbonyl)piperazin-1-yl)-7-oxo-[1,2,4]triazolo[1,5-a]pyrimidin-4(7H)-yl)acetamide]",IC50,[1],< 100 nM
same,IC50,[2],< 100 nM
"CCc1c(N2CCN(C(=O)C(=O)Nc3nccs3)CC2)c(=O)n2nc(N3CCOCC3)nc2n1CC(=O)Nc1ccc(C(F)(F)F)cc1F [Example 260, 2-(4-(5-Ethyl-4-(2-((2-fluoro-4-(trifluoromethyl)phenyl)amino)-2-oxoethyl)-2-morpholino-7-oxo-4,7-dihydro-[1,2,4]triazolo[1,5-a]pyrimidin-6-yl)piperazin-1-yl)-2-oxo-N-(thiazol-2-yl)acetamide]",IC50,[1],< 100 nM
same,IC50,[2],< 100 nM
"CCc1c(N2CCN(C(=O)C(=O)Nc3cc(C)no3)CC2)c(=O)n2nc(C3=CCOCC3)nc2n1CC(=O)Nc1ccc(C(F)(F)F)cc1F [Example 324, 2-(4-(2-(3,6-Dihydro-2H-pyran-4-yl)-5-ethyl-4-(2-((2-fluoro-4-(trifluoromethyl)phenyl)amino)-2-oxoethyl)-7-oxo-4,7-dihydro-[1,2,4]triazolo[1,5-a]pyrimidin-6-yl)piperazin-1-yl)-N-(3-methylisoxazol-5-yl)-2-oxoacetamide]",IC50,[1],< 100 nM
same,IC50,[2],< 100 nM
